Key:
[1] = Body weight-reducing test using DIO (diet-induced obesity) mice (1), Example 3; format: in vivo, mouse; conditions: Compound A alone 10 mg/100 g in-feed; high fat diet-fed C57BL/6J mice
Description: High fat diet-fed, male C57BL/6J mice (Clea Japan, Inc.) were used in the test.
Fed a high fat diet was carried out by allowing 3-week-old, male C57BL/6J mice (Clea Japan, Inc.) to free access to a high-fat diet having 37.2 w/w % fat content and 5.578 kcal/g calorie level (available from Oriental Yeast Co., Ltd.) for feed. Normal diet control mice were allowed free access to CRF-1 (fat content: 5.7 w/w %, calorie level: 3.59 kcal/g, available from Oriental Yeast Co., Ltd.).
The mice were used in the test after housing to age 39 weeks while fed a high fat diet in this manner.
These study animals were used in the test after first grouping according to body weight and blood sugar level.
The animals were administered test DPP4 inhibitor and test sweetener either orally or in-feed. […]
Body weight and food intake were measured over time after the start of administration of the test substances.
Moreover, in the case body weight-reducing effect was observed, body composition was measured using a laboratory mouse X-ray body fat percentage measuring device (PIXImus2, GE Medical Systems Inc.) under pentobarbital anesthesia (70 mg/kg, i.p.). […]

active GLP-1 in plasma [2] = assay: GLP-1 secretion-stimulating action by combined use of DPP4 inhibitor and sweetener (1), Example 2; format: in vivo, mouse; conditions: C57BL/6J mice
Description: Male SD(CD)/Crj rats (Charles River Laboratories Japan, Inc.) (6-week-old at time of use) or male C57BL/6J mice (Clea Japan, Inc.) (9-week-old at time of use) were used in the test.
These study animals were used in the test after first grouping according to body weight. The animals were orally administered (10 mL/kg) a test DPP4 inhibitor (or purified water as a control). At 30 minutes after administration, the animals were then orally administered (10 mL/kg) a solution of a test sweetener (or purified water as a control) followed by collecting blood samples at 0, 30, 60, 180 and 300 minutes after administration. These samples were then measured for concentrations of active GLP-1 in plasma.
Measurement of plasma active GLP-1 concentrations was carried out in the same manner as (1) of Example 1 above.
The measurement results were tested for the presence of a significant difference between groups by comparing the sweetener-loaded groups with the control group using Dunnett's multiple comparison test (two-sided test). Here, a P value less than 5% was considered statistically significant, and statistical analysis software (EXSAS: Biological Experimental Data Statistical Analysis System, Arm Systex Co., Ltd.) was used to analyze the data.
C57BL/6J mice were used for the study animals. […]

active GLP-1 in plasma [3] = assay: GLP-1 secretion-stimulating action of sweetener in DPP4-deficient rats (blood active GLP-1 level-increasing action), Example 1; format: in vivo, rat; conditions: sweetener alone 3 to 6 g/kg/10 mL orally; DPP4-deficient F344DucrlCrlj rats
Description: Male […] rats (Charles River Laboratories Japan, Inc.) (7 to 10-week-old at time of use) were used for the study animals. […] rats are known to be rats of a strain having a spontaneous DPP4 gene deficiency (Watanabe, et al., Experientia, 1987, 43:400-401). These study animals were used in the test after fasting starting on the night prior to the test and grouping according to body weight. The animals were orally administered (10 mL/kg) a solution of the test sweetener (or purified water as a control) followed by collecting blood samples from the tip of the tail at 0, 30, 60, 180 and 360 minutes after dosing. These samples were then measured for concentrations of active GLP-1 in plasma. Measurement of plasma active GLP-1 concentrations was carried out in the following manner. […] Plasma GLP-1 concentrations were then measured using the Bio-Plex Suspension Array System (Rat Endocrine LINCOplex Kit; available from Linco Research, Inc.) or the Glucagon-like Peptide-1 (Active) ELISA KitTM (available from Linco Research, Inc.; active GLP-1 measurement kit). The measurement results were tested for the presence of a significant difference between groups by comparing the sweetener-loaded group with the control group using Dunnett's multiple comparison test (two-sided test). […] Biological Experimental Data Statistical Analysis System, from Arm Systex Co., Ltd.) was used to analyze the data.

active GLP-1 in plasma [4] = assay: GLP-1 secretion-stimulating action by combined use of DPP4 inhibitor and sweetener (2), Example 4; format: in vivo, mouse; conditions: 1 hour after dosing, relative to 100 for Compound A′ and fructooligosaccharide 6 g/kg, C57BL/6J mice
Description: Male C57BL/6J mice (Clea Japan, Inc.) (7-week-old at time of use) were used in the test.
These study animals were used in the test after first fasting starting on the night prior to the test and then grouping according to body weight. The animals were orally administered test DPP4 inhibitor (or purified water as a control) (10 mL/kg). At 30 minutes after administration, the animals were then orally administered (10 mL/kg) a solution of test sweetener (or purified water as a control) followed by collecting blood samples at 0, 30, 60, 180 and 300 minutes after administration. These samples were then measured for concentrations of active GLP-1 in plasma.
Measurement of plasma active GLP-1 concentrations and analysis and testing of the measurement results were carried out in the same manner as (1) of Example 1 above.
Fructooligosaccharide (Meiji Seika Kaisha Ltd.), kestose (Meiji Seika Kaisha Ltd., GF2), raffinose (Wako Pure Chemical Industries, Ltd.), melibiose (Wako Pure Chemical Industries, Ltd.), xylooligosaccharide (Suntory Ltd.), xylose (Wako Pure Chemical Industries, Ltd.), xylitol (Wako Pure Chemical Industries, Ltd.), sorbitol (Wako Pure Chemical Industries, Ltd.), D-mannitol (Wako Pure Chemical Industries, Ltd.), erythritol (Wako Pure Chemical Industries, Ltd.), maltitol (Hayashibara Biochemical Laboratories, Inc.), sucralose (San-Ei Gen F.F.I., Inc.) or acesulfame K (Wako Pure Chemical Industries, Ltd.) was used as sweetener and administered orally (10 mL/kg) at 6 g/kg, 3 g/kg or 1 g/kg.
In addition, (2S)-2-cyano-1-[trans-4-(dimethylaminocarbonyl)cyclohexylamino]acetylpyrrolidine benzenesulfonate (hereafter referred to as Compound A′) as DPP4 inhibitor (or purified water as a control) was used at 10 mg/kg and administered orally (10 mL/kg).
Blood active GLP-1 level-increasing action was tested for the cases of combined use of DPP4 inhibitor and each type of sweetener in accordance with the method described in (1) above (n=4 to 5 animals per group).
Blood active GLP-1 concentrations (1 hour after dosing) in the groups dosed with both each type of sweetener (6 g/kg, 3 g/kg or 1 g/kg) and Compound A′ (10 mg/kg) were represented as relative values with respect to blood active GLP-1 concentrations (1 hour after dosing) in the group dosed with fructooligosaccharide (6 g/kg) and Compound A′.

[5] = administration to mice; JP H6-65080; cited from earlier work
GLP-1 = conditions: Shima et al., Acta Endocrinologica 1990; cited from earlier work
[6] = sweetener 6 g/kg orally combined with Compound A′ 10 mg/kg orally

Structure (SMILES): CN(C)C(=O)[C@H]1CC[C@H](NCC(=O)N2CCC[C@H]2C#N)CC1.Cl (relative stereo) [Compound A, (2S)-2-cyano-1-[trans-4-(dimethylaminocarbonyl)cyclohexylamino]acetylpyrrolidine hydrochloride]
- body weight as compared with the control group [1]: no changes in body weight
- plasma active GLP-1 levels (active GLP-1 in plasma [2]; Compound A 10 mg/kg orally alone): no increases in plasma active GLP-1 levels observed

Structure (SMILES): O=C[C@H](O)[C@@H](O)[C@H](O)CO [Xylose, xylose]
- levels of active GLP-1 in plasma as compared with the control group (active GLP-1 in plasma [3]): remarkably high values
- Plasma active GLP-1 concentration (relative value) (active GLP-1 in plasma [4]; [6]): 597
- levels of active GLP-1 in plasma in comparison with the control group (active GLP-1 in plasma [2]; sweetener 6 g/kg orally combined with Compound A 10 mg/kg orally, fructooligosaccharide: at 30, 60, 180 and 300 minutes): remarkable increases in plasma active GLP-1 levels were observed

Structure (SMILES): O=C[C@H](O)[C@@H](O)[C@@H](O)CO [L-arabinose]
- weight gain [5]: inhibited weight gain in mice

Structure (SMILES): OC[C@@H](O)[C@H](O)[C@@H](O)CO [Xylitol, xylitol]
- levels of active GLP-1 in plasma as compared with the control group (active GLP-1 in plasma [3]): remarkably high values
- Plasma active GLP-1 concentration (relative value) (active GLP-1 in plasma [4]; sweetener 3 g/kg orally combined with Compound A′ 10 mg/kg orally): 272
- Plasma active GLP-1 concentration (relative value) (active GLP-1 in plasma [4]; [6]): 774

Structure (SMILES): OC[C@@H](O)[C@@H](O[C@H]1O[C@H](CO)[C@@H](O)[C@H](O)[C@H]1O)[C@H](O)[C@@H](O)CO [Maltitol, α-D-glucopyranosyl-(1→4)-D-glucitol]
- blood GLP-1 levels following administration (GLP-1): blood GLP-1 levels are increased
- Plasma active GLP-1 concentration (relative value) (active GLP-1 in plasma [4]; [6]): 422

From patent US8927504B2, “Combined use of dipeptidyl peptidase 4 inhibitor and sweetener” (Mitsubishi Tanabe Pharma Corporation, priority 2007, dated 2015)
